{"source": "patent EP2229935A1", "about": "“Peptide derivatives or pharmaceutically acceptable salts thereof, method for producing the same, use of said derivatives and pharmaceutical composition” (Nebolsin, Vladimir Evgenievich, priority 1997, dated 1999)", "key": {"[1]": {"system": "Lewis pulmonary carcinoma (LLC)", "assay": "Lewis pulmonary carcinoma growth", "type": "in vivo", "conditions": "mice with LLC, day 12; for Growth inhibition percent: compound in drinking water; for Tumor volume (mm^3): compound in drinking water from 24 hours after transplantation", "description": "Experiments were carried out on male mice with initial body mass 18-20 g. Each group included 10 animals. […] Administration of compounds II, III, IX, X, XII, XIV, XV, XVI, XVII, XIX, XXII, XLVII in drinking water was commenced 24 hours following transplantation and continued till the end of experiment. Effect of the compounds on Lewis rat pulmonary carcinoma (LLC) was estimated by day 12 of experiment by change in tumor volume expressed in mm^3."}, "[2]": {"system": "Strain Aichi of type A human influenza virus", "type": "in vivo", "conditions": "100 mg/kg, 24 and 2 hours prior and 3 days post infection"}, "mongrel male rats": {"system": "mongrel male rats", "assay": "Hypolipidemic activity: experimental hyperlipidemia (atherogenic load);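 as to all read-outs here: serum drawn 18 h after the final dose from rats deprived of food over that interval, groups of 10 animals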", "conditions": "atherogenic diet; for Kcs: cholesterol index", "description": "Hypolipidemic activity of the compounds of general formula (I) was studied on the model of experimental hyperlipidemia [Arichi H., Kumura H.O. Effects of stibens compounds of roots of polygonum cuspidatium on the lipid metabolism. […] Each group of animals included 10 rats. […] Blood samples were taken for analysis 18 hours after the last administration of the test substances during which period food was taken away from rats.\nThe following parameters were determined: total cholesterol (total CS); high density lipoprotein cholesterol (HDL-CS); low density lipoprotein cholesterol and very low density lipoprotein cholesterol (LDL-CS and VLDL-CS); triglycerides (TG). Blood serum CS level was determined according to the Ilk method [Biochemical examination in the clinic. […] HDL-CS level was measured in supernatant following heparine-manganese precipitation of LDL+VLDL [Titov V.N., Brener E.D., Khaltaiev N.G., Zadoya A.A., Tvorogova M.G. A method and diagnostic significance of cholesterol level study in α-lipoproteins. […] LDL-CS level determination was carried out by calculation according to the formula presented in the work Friedwald W.T. [Friedwald W.T., Levy K.J., Leus R. Fat transport in lipoproteins: an integrated approach to mechanism and disorders.\nTo assess the effect of the test compounds on the ratio of atherogenic and antiatherogenic blood serum lipoproteins, cholesterol index (Kcs) was calculated according to the formula presented in the work [Klimov A.N., Nikulcheva N.G. Lipoproteins, dylipoproteinemias and atherosclerosis.\nBlood serum TG level was determined using the conventional method [Friedwald W.T., Levy R.I., Fredrickson D.S. Estimation of concentration of low-density lipoprotein cholesterol in plasma, without use of preparative ultracentrifuge."}, "hydroxyl radical": {"system": "hydroxyl radical", "assay": "Hydroxyl radical formation in the Fenton reagent (chemiluminescence)", "type": "biochemical", "description": "Active oxygen forms (AOF) of different nature were generated in the following systems: • A. Hydroxyl radical - in the mixture of FeSO4 with H2O2 (the Fenton reagent) [Halliwell B. Superoxide-dependent formation of hydroxyl radicals in the presence of iron salts. […] Incubation medium comprised 5 mM KH2PO4 (pH 7.4); 5 mM FeSO4; 2 mM luminol. H2O2 at final concentration 5 mM was introduced into a cuvette through a dispencer following background luminescence recording of the reagents' mixture. 5 to 10 ml of the test compounds dissolved in water were at needed concentration introduced into a cuvette.\nCL flash recording duration after mixing ingredients, depended on a particular process kinetics. For each system, CL light sum (mV) was determined in the control samples without preparations (I-) and in samples comprising respective concentrations of preparations (I+). To estimate CL inhibition (activation) degree, the I+/I- ratio (in relative units) was found in the studied systems.\nWhen H2O2 was introduced into phosphate buffer comprising iron sulfate, CL flash occured which was caused by formation of predominantly hydroxyl radical in the reaction mixture."}, "mongrel female rats": {"system": "mongrel female rats", "assay": "Hepatoprotective activity: subchronic liver lesion (hepatitis) with CCl4", "type": "in vivo", "conditions": "rats, CCl4 hepatitis", "protocol": "Hepatoprotective properties of the compounds were studied on a model of subchronic liver lesion (hepatitis) with carbon quadrichloride.\n70 mongrel female rats with initial body mass 190-200 g fed a standard vivarium ration, were used in experiment. Animals were divided into 7 groups (10 rats each): • Group 1 - control one; during the first four days of experiment animals were subcutaneously injected 0.2 ml vaseline oil; • Group 2 - during the first four days animals were subcutaneously injected 50% CCl4 solution in vaseline oil at a rate of 0.1 ml per 100 g body mass; • Group 3 - Legalon in a starch gel was administered orally for 8 days at a dose 30 mg/kg against the background of CCl4 administration; […] , resepectively, was administered in a way similar to group III; […] , resepectively, was administered in a way similar to group III.\nThe test compounds and Legalon were administered to animals 1 hour prior to CCl4 administration. 24 hours after the last administration of the drugs, animals were decapitated.\nActivity of blood serum transaminases ALT and AST was assessed using the conventional Frenkel-Rightman method [Laboratory examination methods in the clinic. Ed. by Menshikov V.V. Moscow, Meditsina publishers (1969), 302 pp.].\nThe published method [Rodionova L.P. Modification of blood serum trigyceride level determination method. Laboratomoye delo (Laboratory Matter) (1980), No 5, pp. 297-299] was used to determine blood serum TG level.\nBlood serum LP final product MDA was determined using the published method [Korobeinikova E.N. Modification of lipid peroxydation product determination in reaction with thiobarbituric acid. Laboratomoye delo (Laboratory Matter) (1989), No 7, pp. 8-10]. Concentration of TBA-active products was calculated using regression equation: C = 0.21 + 0.26D, [formula] where C - concentration of TBA-active products (in nM MDA per 1 ml of serum), D - index D535 -D580 (in optic density units).\nTotal hepatic lipids were extracted using the modified Folch method [Cates M. Technology of Lipidology. Moscow, Mir publishers (1975), pp. 74-76]. Quantative content of lipid fractions was assessed with thin layer chromatography method (TLC) using the system of solvents hexane:diethyl ether:acetic acid at ratio 80:20:2. Zones of individual lipid fractions were determined using 10% alcohol solution of phosphoromolyobdenic acid which following elution were spectrophotometrically analysed at 600 nm.\nHepatic MDA level was determined using the published method [Stalnaya I.D., Garishvili T.G. Malonic dialdehyde determination method using thiobarbituric acid. In: Modem methods in biochemistry. Moscow, Meditsina publishers (1977), pp. 66-69]. MDA quantity was calculated using molar extinction coefficient value of stained trimethynic complex formed by MDA with two TBA molecules: E = 1.56 × 10^5 (cm)^-1 × M^-1 [formula]"}, "[3]": {"conditions": "blood, oral last four days, 50 µg/kg"}, "[4]": {"conditions": "blood serum, 10 µg/kg for 10 days"}, "[5]": {"conditions": "0.01 mM, control of the series as in the table"}, "[6]": {"conditions": "0.1 mM, control of the series as in the table"}, "[7]": {"conditions": "1 mM, control of the series 7839 ± 171, 1120 ± 163, 4974 ± 283 or 1332 ± 172"}, "[8]": {"conditions": "blood serum, oral 8 days 30 mg/kg"}, "[9]": {"conditions": "blood serum, oral 8 days, daily dose 30.0 mg/kg"}}, "note": "Like-named read-outs stand apart in the source and are kept apart here. Marks after values point to notes of the source that are not given here."}
{"smiles": "O=C(O)CCCC(=O)NCCc1c[nH]c2ccc(O)cc12", "note": "[compound XV, N-GLUTARYLSEROTONIN]", "values": [{"measurement": "Growth inhibition percent", "setting": "[1]", "value": 63, "unit": "%"}, {"measurement": "Tumor volume (mm^3)", "setting": "[1]", "value": "889 ± 67** mm^3"}]}
{"smiles": "CCOC(=O)c1c(CSc2ccccc2)n(C)c2cc(Br)c(O)c(CN(C)C)c12", "note": "[Arbidol]", "values": [{"measurement": "MLT, days", "setting": "[2]; series with Control - 2 (9.1)", "value": "13.88*^2 days"}, {"measurement": "Survival rate in percent", "setting": "[2]; series with Control - 2 (34.5)", "value": "94.7*^2%"}, {"measurement": "Protection degree in percent", "setting": "[2]; series with Control - 2", "value": 60.2, "unit": "%"}, {"measurement": "MLT, days", "setting": "[2]; series with control - 1 (5.76)", "value": "9.22* days"}, {"measurement": "Survival rate in percent", "setting": "[2]; series with control - 1 (16.7)", "value": "43.4* percent"}, {"measurement": "Protection degree in percent", "setting": "[2]; series with control - 1", "value": 26.7, "unit": "%"}]}
{"smiles": "COc1ccc2[nH]cc(CCNC(=O)CCCC(=O)O)c2c1", "note": "[compound XVI, N-GLUTARYL-5-O-METHYLSEROTONIN]", "values": [{"measurement": "Growth inhibition percent", "setting": "[1]", "value": 56, "unit": "%"}, {"measurement": "Tumor volume (mm^3)", "setting": "[1]", "value": "1076 ± 69** mm^3"}]}
{"smiles": "CC(=O)NC(CC(=O)NCCc1c[nH]cn1)C(=O)O", "note": "(stereo not drawn) [L, N-Acethyl-β -Aspartylhistamine]", "values": [{"measurement": "HDL-CS", "setting": "mongrel male rats; [3]", "value": "31,0±2,1"}, {"measurement": "LDL-CS+ VLDL-CS", "setting": "mongrel male rats; [3]", "value": "63,1±2,4*^A"}, {"measurement": "Total CS", "setting": "mongrel male rats; [3]", "value": "94,1±2,1"}, {"measurement": "Triglycerides", "setting": "mongrel male rats; [3]", "value": "141,6±12,6**^A"}, {"measurement": "Kcs", "setting": "mongrel male rats; oral last four days, 50 µg/kg", "value": "2,03±0,09***^A"}]}
{"smiles": "O=C(O)c1cccnc1", "note": "[nicotinic acid, reference compound]", "values": [{"measurement": "HDL-CS", "setting": "mongrel male rats; [4]", "value": "42.1 ± 4.2***^1.2"}, {"measurement": "LDL-CS+ VLDL-CS", "setting": "mongrel male rats; [4]", "value": "25.7 ± 2.8***^2"}, {"measurement": "Total-CS", "setting": "mongrel male rats; [4]", "value": "65.7 ± 3.5"}, {"measurement": "Triglycerids", "setting": "mongrel male rats; [4]", "value": "89.4 ± 6.2***^2"}, {"measurement": "Kcs", "setting": "mongrel male rats; 10 µg/kg for 10 days", "value": "0.56***^2"}]}
{"smiles": "CC(=O)NC(CC(=O)O)C(=O)NCCc1c[nH]cn1", "note": "(stereo not drawn) [LI, N-Acethyl- α-Aspartylhistamine]", "values": [{"measurement": "HDL-CS", "setting": "mongrel male rats; [3]", "value": "39,8±1,6**^A"}, {"measurement": "LDL-CS+ VLDL-CS", "setting": "mongrel male rats; [3]", "value": "59,3±3,5*^A"}, {"measurement": "Total CS", "setting": "mongrel male rats; [3]", "value": "99,1±4,5"}, {"measurement": "Triglycerides", "setting": "mongrel male rats; [3]", "value": "132,1±17,4**^A"}, {"measurement": "Kcs", "setting": "mongrel male rats; oral last four days, 50 µg/kg", "value": "1,49±0,07***^A"}]}
{"smiles": "O=C(O)CCCC(=O)NCCc1ccccn1", "note": "[compound XX, N-GLUTARYL-2-(2-AMINOETHYL)PYRIDINE]", "values": [{"measurement": "relative effect: I+/I-", "setting": "hydroxyl radical; 0.01 mM", "value": 0.85}, {"measurement": "Chemiluminiscence intensity (mV) + σn-1", "setting": "hydroxyl radical; [5]", "value": "4205 ± 234", "unit": "mV"}, {"measurement": "relative effect: I+/I-", "setting": "hydroxyl radical; 0.1 mM", "value": 0.81}, {"measurement": "Chemiluminiscence intensity (mV) + σn-1", "setting": "hydroxyl radical; [6]", "value": "4018 ± 201", "unit": "mV"}, {"measurement": "relative effect: I+/I-", "setting": "hydroxyl radical; 1 mM", "value": 0.11}, {"measurement": "Chemiluminiscence intensity (mV) + σn-1", "setting": "hydroxyl radical; [7]", "value": "536 ± 124", "unit": "mV"}, {"measurement": "Growth inhibition percent", "setting": "[1]", "value": 16, "unit": "%"}, {"measurement": "Tumor volume (mm^3)", "setting": "[1]", "value": "1148 ± 112", "unit": "mm^3"}]}
{"smiles": "COc1cc(C2Oc3cc([C@H]4Oc5cc(O)cc(O)c5C(=O)[C@@H]4O)ccc3OC2CO)ccc1O", "note": "(some centres unmarked) [Legalon, reference compound]", "values": [{"measurement": "Cholesterol level, mg/100 ml VLDL-CS", "setting": "mongrel female rats; blood serum, TG/5, oral 8 days 30 mg/kg", "value": "15.7 ± 1.1", "unit": "p<0.05 mg/100 ml"}, {"measurement": "Cholesterol level, mg/100 ml LDL-CS", "setting": "mongrel female rats; blood serum, calculated by formula, oral 8 days 30 mg/kg", "value": "20.1 ± 1.1", "unit": "p<0.01 mg/100 ml"}, {"measurement": "Cholesterol level, mg/100 ml HDL-CS", "setting": "mongrel female rats; [8]", "value": "54.8 ± 2.5", "unit": "mg/100 ml"}, {"measurement": "Cholesterol level, mg/100 ml total-CS", "setting": "mongrel female rats; [8]", "value": "90.9 ± 3.4", "unit": "mg/100 ml"}, {"measurement": "TG level, mg/100ml", "setting": "mongrel female rats; [8]", "value": "78.0 ± 6.2", "unit": "p<0.05 mg/100ml"}, {"measurement": "ALT, nM/dl", "setting": "mongrel female rats; [9]", "value": "622 ± 36", "unit": "nM/dl"}, {"measurement": "AST, nM/dl", "setting": "mongrel female rats; [9]", "value": "531 ± 22", "unit": "nM/dl"}, {"measurement": "Lipid composition (in percent of total lipids) FCS", "setting": "mongrel female rats; liver, oral 8 days 30 mg/kg", "value": "15.0 ± 0.4 p<0.01% of total lipids"}, {"measurement": "Lipid composition (in percent of total lipids) Phospholipids", "setting": "mongrel female rats; liver, oral 8 days 30 mg/kg", "value": "19.7 ± 1.1% of total lipids"}, {"measurement": "Lipid composition (in percent of total lipids) Triglycerides", "setting": "mongrel female rats; liver, oral 8 days 30 mg/kg", "value": "44.1 ± 1.9% of total lipids"}, {"measurement": "Hepatic MDA, nM/l", "setting": "mongrel female rats; 30.0 mg/kg", "value": "4.17 ± 0.31", "unit": "p<0.001 nM/l"}, {"measurement": "Serum MDA, nM/l", "setting": "mongrel female rats; 30.0 mg/kg", "value": "5.58 ± 0.15", "unit": "nM/l"}]}
{"smiles": "O=C(O)CCCC(=O)NCCc1c[nH]c2ccc(OCc3ccccc3)cc12", "note": "[XIV, N-GLUTARYL-O-BENZYLSEROTONIN]", "values": [{"measurement": "Growth inhibition percent", "setting": "[1]", "value": 68, "unit": "%"}, {"measurement": "Tumor volume (mm^3)", "setting": "[1]", "value": "779 ± 94** mm^3"}]}
{"smiles": "O=C(O)CCCC(=O)NCCN1CCOCC1", "note": "[XIX, N-GLUTARYL-4-(2-AMINOETHYL)MORPHOLINE]", "values": [{"measurement": "Chemiluminiscence intensity (mV) + σn-1", "setting": "hydroxyl radical; 1 µM, control of the series as in the table", "value": "49089 ± 269", "unit": "mV"}, {"measurement": "relative effect: I+/I-", "setting": "hydroxyl radical; 0.01 mM", "value": 0.77}, {"measurement": "Chemiluminiscence intensity (mV) + σn-1", "setting": "hydroxyl radical; [5]", "value": "3846 ± 184", "unit": "mV"}, {"measurement": "relative effect: I+/I-", "setting": "hydroxyl radical; 0.1 mM", "value": 0.68}, {"measurement": "Chemiluminiscence intensity (mV) + σn-1", "setting": "hydroxyl radical; [6]", "value": "3377 ± 222", "unit": "mV"}, {"measurement": "relative effect: I+/I-", "setting": "hydroxyl radical; 1 mM", "value": 0.13}, {"measurement": "Chemiluminiscence intensity (mV) + σn-1", "setting": "hydroxyl radical; [7]", "value": "626 ± 56", "unit": "mV"}, {"measurement": "Growth inhibition percent", "setting": "[1]", "value": 28, "unit": "%"}, {"measurement": "Tumor volume (mm^3)", "setting": "[1]", "value": "994 ± 173", "unit": "mm^3"}]}
